The source made the active and inactive calls. No rule for the calls is given here.
What was measured:
hERG (Kv11.1, KCNH2) [1] = biological target: T1, hERG (Kv11.1, KCNH2) (Homo sapiens, UniProt Q12809); experiment: in vitro
Description: MMV: Malaria Box compounds were tested for inhibition of the human ether a go-go related gene (hERG), Kv11.1 channel, using IonWorks 384-well patch clamp electrophysiology at 11.1uM (3 independent assay plates up to 12 cells per concentration).

hERG (Kv11.1, KCNH2) [2] = biological target: T1, hERG (Kv11.1, KCNH2); experiment: in vitro; remark: listed apart in the source
Description: MMV: Malaria Box compounds were tested for inhibition of the human ether a go-go related gene (hERG), Kv11.1 channel, using IonWorks 384-well patch clamp electrophysiology at 1.1uM (3 independent assay plates up to 12 cells per concentration).

T1 sequence (Q12809 whole entry): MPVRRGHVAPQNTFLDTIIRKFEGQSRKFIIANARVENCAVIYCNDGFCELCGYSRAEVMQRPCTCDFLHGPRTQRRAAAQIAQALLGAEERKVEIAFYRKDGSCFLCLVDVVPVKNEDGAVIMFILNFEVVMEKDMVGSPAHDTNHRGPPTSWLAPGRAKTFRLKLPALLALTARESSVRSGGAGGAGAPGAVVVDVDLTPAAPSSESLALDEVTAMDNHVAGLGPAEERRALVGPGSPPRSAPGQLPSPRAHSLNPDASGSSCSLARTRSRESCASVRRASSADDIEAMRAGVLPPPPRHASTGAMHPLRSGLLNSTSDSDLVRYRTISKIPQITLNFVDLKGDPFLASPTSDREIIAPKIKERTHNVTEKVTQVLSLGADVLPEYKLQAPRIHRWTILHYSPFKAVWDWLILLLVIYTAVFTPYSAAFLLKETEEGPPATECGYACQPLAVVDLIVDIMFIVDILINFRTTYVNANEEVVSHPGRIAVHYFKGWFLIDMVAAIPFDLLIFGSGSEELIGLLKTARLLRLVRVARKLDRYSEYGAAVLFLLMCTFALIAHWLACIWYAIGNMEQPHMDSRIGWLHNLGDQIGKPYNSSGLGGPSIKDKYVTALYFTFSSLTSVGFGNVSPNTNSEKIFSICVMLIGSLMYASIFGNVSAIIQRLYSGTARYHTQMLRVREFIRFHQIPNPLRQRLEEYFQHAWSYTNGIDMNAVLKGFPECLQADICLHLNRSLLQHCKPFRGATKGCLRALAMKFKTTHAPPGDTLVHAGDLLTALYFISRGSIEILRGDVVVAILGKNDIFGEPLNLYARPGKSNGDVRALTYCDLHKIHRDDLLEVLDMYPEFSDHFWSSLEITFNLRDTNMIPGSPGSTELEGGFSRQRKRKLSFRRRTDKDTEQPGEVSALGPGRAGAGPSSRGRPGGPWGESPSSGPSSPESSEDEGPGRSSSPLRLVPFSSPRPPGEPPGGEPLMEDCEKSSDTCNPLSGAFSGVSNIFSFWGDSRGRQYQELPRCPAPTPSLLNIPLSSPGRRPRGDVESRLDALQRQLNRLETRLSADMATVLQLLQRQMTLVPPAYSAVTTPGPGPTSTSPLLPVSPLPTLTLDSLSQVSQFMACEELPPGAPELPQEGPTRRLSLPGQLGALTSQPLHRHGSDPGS

SMILES	inhibition at 11.1 µM (hERG (Kv11.1, KCNH2) [1])	inhibition at 1.1 µM (hERG (Kv11.1, KCNH2) [2]) [%]
CCOc1cc(Cl)c(C(C)NC(=O)c2ccccc2)cc1OCC (stereo not drawn)	7% (inactive)	-6
CCOc1ccc(N2C(N)=NC(N)=NC2(C)C)cc1	6% (inactive)	12
CCOc1ccc2nc(C)cc(Nc3ccc(Br)cc3)c2c1	16% (inactive)	3
COc1ccc(Nc2nc(N/N=C/c3ccc(O)cc3)nc(Nc3ccc([N+](=O)[O-])cc3)n2)cc1	70% (active)	17
CN(C)c1ccc(N2C(N)=NC(N)=NC2(C)C)cc1	11% (inactive)	10
CCN(CC)CCn1c(=N)n(CC(O)c2ccc(Cl)c(Cl)c2)c2ccccc21 (stereo not drawn)	86% (active)	36
CCOC(=O)c1cn(CC)c2cc(N3CCCCC3)c(F)cc2c1=O	25%	-4
O=C(NC(c1ccccc1)c1ccc2cccnc2c1O)c1ccccc1 (stereo not drawn)	17% (inactive)	1
O=[N+]([O-])c1ccc(C=NNc2nc3ccccc3[nH]2)cc1	44%	15
O=C(O)C1Cc2c([nH]c3ccccc23)C(c2ccc(Cl)cc2Cl)N1 (stereo not drawn)	34%	-5
Cc1cc(N(C)C)nc(Nc2ccc(NC(=O)Nc3ccccc3)cc2)n1	-1% (inactive)	2
COc1ccc(C)c2sc(N(Cc3cccnc3)C(=O)c3ccc(C#N)cc3)nc12	69% (active)	1
CCN1CCN(c2c(C(=O)c3ccccc3)cnc3cc(OC)c(OC)cc23)CC1	40%	36
O=c1nc(C=Cc2ccc(Cl)cc2)oc2ccccc12	10% (inactive)	-5
Oc1c(C(Nc2ccccn2)c2cccc(Oc3ccccc3)c2)ccc2cccnc12 (stereo not drawn)	97% (active)	20
c1ccc(/C2=N/c3ccccc3/N=C(/c3ccccc3)c3ccccc32)cc1	3% (inactive)	7
COc1ccc(C=C2SC(Nc3ccc(F)cc3)=NC2=O)c(OC)c1	96% (active)	44
CC(C)=CCN1CCC(C(=O)Nc2ccc(-c3nc4ccccc4[nH]3)cc2)CC1	29%	0
COc1cccc(Cn2c(Oc3ccccc3)nc3c2c(=O)n(C)c(=O)n3C)c1	26%	-4
COc1ccccc1N1C(=N)SC(=Cc2ccc(OCc3ccccc3F)cc2)C1=O	24% (inactive)	18
CCOc1ccc(-n2cc(-c3ccccc3)c3c(SCc4cc(C)ccc4C)ncnc32)cc1	-16% (inactive)	-10
COc1ccc(C2Sc3ccccc3N=C3C2=C(O)c2ccccc23)cc1 (stereo not drawn)	26%	-2
COc1ccc2nc(C)cc(Nc3ccccc3O)c2c1	57% (active)	18
O=C1c2ccc3c4c(ccc(c24)C(=O)N1CCCCO)C(=O)N(CCCCO)C3=O	37%	3
CCOc1ccccc1CNC(=O)C1c2ccccc2C(=O)N(CC(C)C)C1c1cccs1 (stereo not drawn)	84% (active)	12

SMILES	inhibition at 11.1 µM (hERG (Kv11.1, KCNH2) [1])	inhibition at 1.1 µM (hERG (Kv11.1, KCNH2) [2]) [%]
COc1cc(OC)cc(N2C(=O)N(Cc3ccc(C(C)(C)C)cc3)c3ccccc3S2(=O)=O)c1	16% (inactive)	10
Cc1cc(NC(=O)C2c3ccccc3C(=O)N(CC(C)C)C2c2cccs2)no1 (stereo not drawn)	11% (inactive)	4
COc1cccc(C(=O)NC(c2ccc(C)cc2)c2cc(Cl)c3cccnc3c2O)c1 (stereo not drawn)	-6% (inactive)	4
COc1ccc(CNC2CCN(c3ccc(NC(=O)c4cccc(Cl)c4)cc3)CC2)cc1OC	102%	84
CCOc1ccc(-c2nonc2NC(=O)c2cccc(C)c2)cc1OCC	0% (inactive)	-1
CCOc1cc(Cl)c(C(C)NC(=O)c2cccc(OC)c2)cc1OCC (stereo not drawn)	9% (inactive)	-3
CC(C)OCc1cc(CN2CCN(c3cccc(Cl)c3)CC2)c(O)c2ncccc12	100%	65
COc1ccc(CCN2CCC(CN(C)Cc3cnn(-c4ccccc4)c3)CC2)cc1	99% (active)	41
Cc1ccc(NC(=O)Nc2cccc(Cl)c2)cc1F	-1% (inactive)	-7
COc1cc(-c2nc(-c3ccc(Sc4ccccc4)cc3)c(-c3ccccc3)[nH]2)cc(OC)c1O	13% (inactive)	15
CCN(CC)S(=O)(=O)c1ccc(-c2csc(Nc3ccc(C)c(C)c3)n2)cc1	-3% (inactive)	-7
COc1ccc(CNC(=O)c2cc3c(=O)n4ccccc4nc3n(CCc3ccccc3)c2=N)cc1	45%	10
FC(F)(F)c1cccc(CNC2CCN(CCc3ccccc3)CC2)c1	97% (active)	4
Cc1ccc(F)cc1NC(=O)c1cc(Cl)ccc1Nc1ccccc1	12% (inactive)	5
COCCNCC(O)Cn1c2ccc(Cl)cc2c2cc(Cl)ccc21 (stereo not drawn)	83% (active)	14
CCN(CC)CCNc1ccnc2cc(Cl)ccc12	61% (active)	18
CCN1CCN(Cc2ccc(NC(=O)c3cc4ccc5cccnc5c4[nH]3)cc2)CC1	106% (active)	41
CCOC(=O)c1cn(CC)c2cc(N(C)CCc3ccc(OC)c(OC)c3)c(F)cc2c1=O	34%	3
COc1ccc(-c2nc(N3CCN(C(=O)C4CCCCC4)CC3)c3c4c(sc3n2)CCCC4)cc1	17% (inactive)	7
OC(Cn1nnc2ccccc21)Cn1c2ccc(Br)cc2c2cc(Br)ccc21 (stereo not drawn)	17% (inactive)	21
COc1cc2cc(C(=O)Nc3ccccc3)c(N)nc2cc1OC	69% (active)	10
CCOc1ccc(Nc2c3ccccc3nc3ccccc23)cc1	112%	68
CC(C)CCNCC(O)Cn1c2ccccc2c2ccccc21 (stereo not drawn)	61% (active)	2
CCOC(=O)c1cnc2c(C)cc(C)cc2c1Nc1ccc(OC)c(OC)c1	18% (inactive)	26
CCn1c(SCC(=O)Nc2cc(C(F)(F)F)ccc2Cl)nc2ccccc2c1=O	34%	-1

SMILES	inhibition at 11.1 µM (hERG (Kv11.1, KCNH2) [1])	inhibition at 1.1 µM (hERG (Kv11.1, KCNH2) [2]) [%]
O=C(Nc1ccccc1O)c1ccc(Oc2cccc(C(=O)Nc3ccccc3O)c2)cc1	5% (inactive)	-2
CCCN(CCC)CC(O)COc1ccccc1C(=O)Nc1ccccc1 (stereo not drawn)	98%	57
Cc1ccc(C)c(Cn2c(N3CCC(C(=O)NCc4cccs4)CC3)nc3ccccc32)c1	84% (active)	16
O=C(Nc1ccc(N2CCCCC2)c(Cl)c1)c1ccc(Br)o1	41%	-3
CC(=O)Nc1nnc(SCc2c(C)cc(C(C)(C)C)cc2C)s1	6% (inactive)	0
COc1cccc(NC(=O)Cn2c(C)c(C#N)c3ccccc32)c1	-4% (inactive)	2
CCOc1cc2c(cc1OCC)C(c1cc(OC)c(O)cc1Cl)NCC2 (stereo not drawn)	30%	10
OC(CNCC1CCCO1)Cn1c2ccc(Cl)cc2c2cc(Cl)ccc21 (stereo not drawn)	16% (inactive)	12
CN(C)c1ccc(C=Cc2nc(=O)c3ccccc3o2)cc1	0% (inactive)	2
CCOC(=O)C1=CN(C)C=C(C(=O)OCC)C1c1cc(Br)c(OCC)c(OC)c1	54% (active)	16
Cc1ccc(-c2nc3ccccc3o2)cc1NCc1cc(Cc2ccccc2)ccc1O	10% (inactive)	11
O=C(Nc1ccc(CN2CCOCC2)cc1)c1ccc(-c2cc(Cl)ccc2Cl)o1	88% (active)	8
Cc1c(C)n(CC(O)CNC2CCCCC2C)c2ccccc12 (stereo not drawn)	20% (inactive)	-10
CC(=O)c1ccc(NC(=O)CSc2nc(-c3ccccc3Cl)ns2)cc1	7% (inactive)	-6
Cc1cc(C)c2c(c1)OCN(Cc1ccccc1Cl)C2	88% (active)	30
Clc1ccc2c(N3CCCC3)ccnc2c1	83% (active)	38
COc1ccc(C2c3ccc4ccccc4c3Oc3ncn(CCCN(C)C)c(=N)c32)cc1 (stereo not drawn)	86% (active)	32
N=c1n(CCN2CCCCC2)c2ccccc2n1CC(=O)c1ccc(Cl)c(Cl)c1	-1% (inactive)	-13
O=C1c2ccccc2C2=Nc3ccccc3SC(c3cccc(F)c3)C12 (stereo not drawn)	4% (inactive)	-4
CC(=O)NCCc1nc2ccccc2n1Cc1ccc(C(C)C)cc1	26%	6
COc1ccc(C(=O)NC(c2ccccc2Cl)c2cc(Cl)c3cccnc3c2O)cc1 (stereo not drawn)	7% (inactive)	9
COc1ccc2c(c1)OC(O)(C(F)(F)C(F)(F)F)CC2=O (stereo not drawn)	25%	4
CCOc1cc2c(cc1OCC)C(c1cc(Cl)c(O)c(OCC)c1)NCC2 (stereo not drawn)	57% (active)	1
COc1cc(SC)ccc1C(=O)N1CCCC(C)C1 (stereo not drawn)	8% (inactive)	16
